Test systems include NCI-H522; SNB-19; 786-0; RPMI-8226; MCF7; MDA-MB-435; CAKI-1; COLO 205; SNB-75; NCI-H460; HCT-15; HL-60; RXF 393; UACC-62; SK-MEL-5; SK-MEL-2; HOP-92; HOP-62; OVCAR-8; HCT-116.
Holding throughout (test): DTP human tumour cell line panel, 48 h

This note sets out measurements from ChEMBL document CHEMBL1201862, “PubChem BioAssay data set” (2004).

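All cell lines were grown in 96-well plates and treated with compound for 48 hours. GI50 = concentration required for 50% inhibition of growth.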 Calls of active or inactive are those of the source. Cut-off read from the data, not from the text of the source: active = GI50 up to about 1.1 µM and inactive = higher.

The GI50 is the concentration giving 50% growth inhibition. Consider `O=C(O[C@H]1[C@@H](O)[C@H](n2cnc3c(Cl)ncnc32)O[C@@H]1COC(c1ccccc1)(c1ccccc1)c1ccccc1)c1ccccc1`, for which the GI50 is 5.09 µM (inactive) in the test with NCI-H522; 39.3 µM (inactive) in the test on SNB-19; 14.9 µM (inactive) in the test with 786-0; 2.25 µM (inactive) with RPMI-8226; 4.91 µM (inactive) in the test on MCF7; 26.8 µM (inactive) in the test with MDA-MB-435. The GI50 was 2.62 µM (inactive) in the test with CAKI-1; 15.9 µM (inactive) in the test with COLO 205; 45.4 µM (inactive) in the test on SNB-75; 17.5 µM (inactive) with NCI-H460; 17.4 µM in the test on HCT-15; 9.91 µM (inactive) in the test on HL-60. Further, the GI50 in the test on RXF 393 is 16.6 µM (inactive); in the test with UACC-62 it was 39.5 µM (inactive); with SK-MEL-5, 8.47 µM (inactive); in the test on SK-MEL-2, 21.2 µM (inactive); in the test on HOP-92, 15.8 µM (inactive); in the test with HOP-62, 16.7 µM (inactive). In addition, the GI50 was 25.4 µM (inactive) with OVCAR-8 and 40.9 µM (inactive) in the test on HCT-116.

Consider `O=C1NCC2(CCNCC2)N1c1ccccc1`, for which the GI50 in the test on NCI-H522, in the test on SNB-19, with 786-0, in the test with RPMI-8226, in the test on MCF7 and in the test with MDA-MB-435 was > 100 µM (inactive) each time. Also, the GI50 was > 100 µM (inactive) in the test with CAKI-1; > 100 µM (inactive) with COLO 205; > 100 µM (inactive) in the test on SNB-75; > 100 µM (inactive) in the test on NCI-H460; above 100 µM in the test with HCT-15; > 100 µM (inactive) with HL-60. Also, the GI50 with RXF 393, in the test on UACC-62, in the test on SK-MEL-5, in the test on SK-MEL-2, in the test on HOP-92 and in the test with HOP-62 was > 100 µM (inactive) in each case. The GI50 with OVCAR-8 and in the test on HCT-116 was > 100 µM (inactive) in each case.
